Laboratory results from patent US7423068B2, “Control of parasitic mites of honey bees” (The United States of America as represented by the …, priority 2001, dated 2008).
Marks after values point to notes of the source that are not given here.

Columns and labels:
[1] = system: Varroa mite; assay: Miticidal activity in 5-frame honey bee colonies (sticky board counts); type: in vivo, Varroa jacobsoni
Procedure: This set of bioassays was conducted in 5-frame colonies. We tested miticidal activity of 30% concentration 2-heptanone in an acrylic block dispenser. Four colonies were established for each of the following treatments: 2-heptanone, Apistan® (a commercially available miticide for control of Varroa), and no treatment (i.e., Controls). Before each treatment, counts were made of the number of mites that dropped on to Dewill® Varroa Mite Detector Inserts (hereinafter denoted as “sticky boards”) placed at the bottom of colonies for one week (pre-treatment counts). A new sticky board then was inserted at the bottom of each colony, and either a single acrylic block dispenser with 30% 2-heptanone made as in Example 6 (surface area=28.3 cm^2) or a single Apistan® strip was placed between the frames. The Controls comprised no treatment. The number of mites on the sticky boards was counted weekly for 3-4 weeks afterwards (treatment interval). New sticky boards were inserted at the beginning of each week. At the end of the test period, the 2-heptanone and Apistan® were removed, and a new sticky board was inserted on the bottom of the colonies. A new Apistan® strip then was placed in the colonies to kill any remaining mites (post-treatment interval). The number of mites on the sticky board was counted after the colony was exposed to the new Apistan® strip for one week. The % Reduction in the Varroa Population was estimated by summing all the mites counted on the sticky board during the 3 or 4 week treatment interval and dividing it by the total number of mites counted for the colony during both the treatment and post-treatment intervals.
When we removed the acrylic strips from the colony after three weeks, we could still detect the odor of 2-heptanone. We repeated the test with new colonies, and in this trial (Trial-2) left the 2-heptanone and Apistan® strips in the colony for 4 weeks. We then placed the post-treatment Apistan® strips in the colonies.
This test (Trial 3) was carried out in 5-frame colonies as described above except for the following changes. […]

[2] = system: honey bee (Apis mellifera L.) colony; assay: Influence of 2-heptanone on honey bee colony behavior (two-frame observation hive); type: in vivo
Procedure: Tests were conducted with 2-heptanone in pure form and in a 30% concentration in acrylic block made as in Example 6 to determine its effects on the honey bee (Apis mellifera L.) colony behavior. A two-frame observation hive (the hive had one frame on the bottom with adult worker bees and brood and a top frame with adult worker bees and honey) with a laying queen was used for the study. […] Within 4 hours the 2-heptanone had evaporated, and the bees returned to the frame, and the fanning stopped.
To test the effects of 2-heptanone in acrylic blocks, we again conducted studies using two frame observation hives arranged as described above. For one week prior to inserting the acrylic blocks, we measured queen ovipositions, and the number of workers bees leaving the hive per 5-minute interval in four observation colonies. We also counted the number of workers in a court surrounding the queen once during the 5-minute interval. We then added one acrylic block dispenser with a surface area of 8.04 cm^2 containing a 30% concentration of 2-heptanone. […] The latter served as Controls.

[3] = system: honey bee (Apis mellifera L.) colony; assay: Maximum levels of 2-heptanone without negatively impacting bee behavior (observation hive); type: in vivo; details: pure 2-heptanone up to 500 μL on filter paper (2700 ppm v/v or 0.27%), queenless two-frame hive, 23° C.
Procedure: A test was conducted with 2-heptanone in pure form to determine its effects on honey bee (Apis mellifera L.) colony behavior and ascertain if there was a maximum dose of 2 heptanone that could induce a colony to leave their hive. Two full sized frames were taken from a colony in our local apiary and placed inside a two-frame observation hive having a total volume of 8565 cm^3.These two frames contained adult worker bees only and were queenless. A 2-day period when no testing occurred was included to allow for colony adjustment to the new dwellings. The observation hive was set up inside a greenhouse with a 2.5 cm tube connected from the side of the observation hive to the side wall of the greenhouse. This tube served as an exit and entrance for the workers.
We fastened a strip of filter paper measuring 7.6 cm by 2.5 cm to the top inside frame of the observation colony with a thumbtack and applied an initial 100 μL of pure 2-heptanone to the filter paper and observed worker behavior. Subsequent applications of 40 μL of 2-heptanone were applied every 4 minutes with observations of worker behavior documented. Ambient temperature at the time of the observations was 23° C. […]
Our experiment ended when 500 μL of pure 2-heptanone was the total amount on our filter paper. Concentration of 500 μL of 2-heptanone in the two-frame observation hive was calculated to be 2700 ppm v/v or 0.27%.

[4] = Diffusion of 2-heptanone from controlled release strip; type: physicochemical; details: polyurethane core with 60 g 2-heptanone, in 5-frame colony
Procedure: This test (Trial 3) was carried out in 5-frame colonies as described above except for the following changes. In this test, 2-heptanone was released using a controlled release strip as described in U.S. Pat. No. 5,750,129. In brief, the controlled release strip was composed of a polymer sleeve 20 cm long and 5 cm wide in which a polyurethane core containing 60 g 2-heptanone was sealed. The 2-heptanone strip was placed on the top of the frame (top bar). The controlled diffusion of 2-heptanone through the membrane occurred over a period of 3 weeks. A new 2-heptanone controlled release strip was placed on the top bar after 3 weeks. The Apistan® strip was placed between the frames as described above. The Control comprised no treatment.

[5] = filter paper with 40 μl of pure 2-heptanone

For CCCCCC(C)=O [2-Heptanone], the “% Reduction in Varroa Mite Population ± S.E.” value (from here on “% Reduction”) ([1]; Trial 1, 3 week treatment, 30% 2-heptanone acrylic block or single Apistan strip, Control 42.2 ± 7.0) was 61.8 ± 8.5 a %, the “% Reduction” value ([1]; Trial 2, 4 week treatment, 30% 2-heptanone acrylic block or single Apistan strip, Control 43.6 ± 4.2) was 73.6 ± 13.7 a % and the “% Reduction” value ([1]; Trial 3, controlled release strip with 60 g 2-heptanone on top bar, renewed after 3 weeks, or Apistan strip, Control 69.35 ± 4.8) was 87.05 ± 4.4 a %. The “immediate effect on the bees on the frames” value ([2]; acrylic block 8.04 cm^2, 30% 2-heptanone) was “no immediate effect on the bees on the frames”, the “Ovipositions, Post-Treatment” value ([2]; acrylic block 8.04 cm^2, 30% 2-heptanone, average per 5-minute interval, pretreatment 5.3) was 5.3 and the “Workers in court, Post-Treatment” value ([2]; acrylic block 8.04 cm^2, 30% 2-heptanone, average per 5-minute interval, pretreatment 10.2) was 10.2. The “Foragers leaving, Post-Treatment” value ([2]; acrylic block 8.04 cm^2, 30% 2-heptanone, average per 5-minute interval, pretreatment 16.1, significantly different p = 0.05) was 23.6*, the “bee behavior after placing 2-heptanone in observation colony” value [2, 5] was “all the bees moved off of the frame and began to fan” and the “time until 2-heptanone evaporated, bees returned to the frame and fanning stopped” value [2, 5] was ≤ 4 h. The “bees exiting the observation hive” value [3] was “At no time however, did all bees fully or permanently exit the observation hive” and the “period of controlled diffusion of 2-heptanone through the membrane” value [4] was 3 weeks.
